# According to US5470830A, “Motilin-like polypeptides that inhibit gastrointestinal motor activity” (Ohmeda Pharmaceutical Products Division Inc., priority 1993, dated 1995):
# Counter-ions that a name gives are not always drawn. Like-named read-outs stand apart in the source and are kept apart here. Where a SMILES comes first, the peptide text is derived from it. Where no end group is shown, it is not given here. [ ]: non-standard residue; d: D form. Phe(4-I) = N[C@@H](Cc1ccc(I)cc1)C(=O)O; 2Nal = N[C@@H](Cc1ccc2ccccc2c1)C(=O)O; NMeF = CN[C@@H](Cc1ccccc1)C(=O)O; 2Thi = N[C@@H](Cc1cccs1)C(=O)O; Cha = N[C@@H](CC1CCCCC1)C(=O)O
# Assays:
# [1] = target: segments of rabbit duodenum (Oryctolagus cuniculus, UniProt G1T803); test: Rabbit duodenal smooth muscle strip tissue bath assay (contractile response); type: cell-based; conditions: contractility; negative logarithm of dose giving 50% of maximal response to motilin; compounds tested 10^-11 to 10^-4 M
# Experimental: The experimental protocol consisted of an equilibration period of 1 hour: a challenge with 10^-4 M acetylcholine followed by a wash-out period; a cumulative dose-response curve of a compound with, at the end, the addition of 10^-7 M motilin; and finally 10^-4 M acetylcholine. If the final response to 10^-4 M acetylcholine differed by more than 5% from the initial response, the results were discarded.
# [2] = target: T1, motilin receptor (rabbit antral smooth muscle membranes) (Oryctolagus cuniculus, UniProt G1T803); test: Motilin receptor binding affinity: displacement of [125I-Tyr7,Nle13]motilin(porcine)
# T1 construct: from tissue; host or cells: rabbit antral smooth muscle membranes
# Experimental: The motilin receptor binding affinity of the peptides of this invention was determined by using the general procedure of Bormans, Peelers and Vantrappen, Regul. Pept., 15, 143-153 (1986). The ability of the peptides to displace [^125 I-Tyr^7,Nle^13 ]motilin(porcine) bound to rabbit antral smooth muscle membranes, was determined by testing twice, each time in duplicate, at concentrations ranging from 10^-11 to 10^-4 M. The concentration displacing 50% of the label (IC50) was determined by fitting the data to the equation describing displacement, assuming a single class of motilin receptors to which labeled and non-labeled motilin bind with equal affinity and non-cooperatively. Fitting was performed using the iterative least-squares procedure of the SAS-software package (SAS Institute, Inc., Cary, N.C., U.S.A.). […] The concentration displacing 50% of the label is expressed using its negative logarithm (pIC50).
# [3] = negative logarithm of concentration displacing 50% of [125I-Tyr7,Nle13]motilin(porcine) from rabbit antral smooth muscle membranes, read-out: pIC50 (converted)
# Chain of segments of rabbit duodenum (G1T803 1-400): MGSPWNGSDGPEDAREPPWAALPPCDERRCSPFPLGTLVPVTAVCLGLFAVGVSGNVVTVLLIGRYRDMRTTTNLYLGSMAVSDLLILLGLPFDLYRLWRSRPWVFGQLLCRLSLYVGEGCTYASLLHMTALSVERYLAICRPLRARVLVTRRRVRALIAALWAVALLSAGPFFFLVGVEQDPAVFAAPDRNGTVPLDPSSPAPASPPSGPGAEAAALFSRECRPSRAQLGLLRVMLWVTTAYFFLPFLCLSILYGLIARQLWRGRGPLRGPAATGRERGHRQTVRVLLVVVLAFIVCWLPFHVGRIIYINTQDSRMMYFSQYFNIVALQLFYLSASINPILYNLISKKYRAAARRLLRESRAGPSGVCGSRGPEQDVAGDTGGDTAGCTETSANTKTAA
# T1 sequence (G1T803 1-400): as above
pEC50 [1],"IC50 [2, 3] [µM]",Compound,IC50 [2] [µM]
< 4.5,0.0813,"CC[C@H](C)[C@H](NC(=O)[C@H](Cc1ccccc1)NC(=O)[C@@H](NC(=O)[C@@H](N)Cc1ccccc1)C(C)C)C(=O)N[C@@H](Cc1ccccc1)C(=O)N[C@H](C(=O)N[C@@H](Cc1ccc(O)cc1)C(=O)NCC(=O)N[C@@H](CCC(=O)O)C(=O)N[C@@H](CC(C)C)C(=O)N[C@@H](CCC(N)=O)C(=O)N[C@H](CCCNC(=N)N)C(=O)N[C@@H](CC(C)C)C(=O)N[C@@H](CCC(N)=O)C(=O)O)[C@@H](C)O [[Phe^3, D-Arg^12, Leu^13]pMOT(1-14)] (H-FVFIFTYGELQ[dR]LQ-OH)",–
< 4.5,0.00158,"H-FVFIFTYGELQRLK-NH2 [[Phe^3, Leu^13, Lys^14]pMOT(1-14) amide, H-Phe-Val-Phe-Ile-Phe-Thr-Tyr-Gly-Glu-Leu-Gln-Arg-Leu-Lys-NH2]",–
< 4.5,0.0339,"H-FLFIFTYGELQRLQ-OH [[Leu^2, Phe^3, Leu^13]pMOT(1-14), H-Phe-Leu-Phe-Ile-Phe-Thr-Tyr-Gly-Glu-Leu-Gln-Arg-Leu-Gln-OH]",–
< 4.5,0.049,"CC[C@H](C)[C@H](NC(=O)[C@H](Cc1ccccc1)NC(=O)[C@@H](NC(=O)[C@@H](N)Cc1ccccc1)C(C)C)C(=O)N[C@@H](Cc1ccccc1)C(=O)N[C@H](C(=O)N[C@@H](Cc1ccc(O)cc1)C(=O)N[C@H](C)C(=O)N[C@@H](CCC(=O)O)C(=O)N[C@@H](CC(C)C)C(=O)N[C@@H](CCC(N)=O)C(=O)N[C@@H](CCCNC(=N)N)C(=O)N[C@@H](CC(C)C)C(=O)N[C@@H](CCC(N)=O)C(=O)O)[C@@H](C)O [[Phe^3, D-Ala^8, Leu^13]pMOT(1-14), H-Phe-Val-Phe-Ile-Phe-Thr-Tyr-D-Ala-Glu-Leu-Gln-Arg-Leu-Gln-OH] (H-FVFIFTY[dA]ELQRLQ-OH)",–
< 4.5,0.229,"CC[C@H](C)[C@H](NC(=O)[C@H](Cc1ccccc1)NC(=O)[C@@H](NC(=O)[C@H](N)Cc1ccccc1)C(C)C)C(=O)N[C@@H](Cc1ccccc1)C(=O)N[C@H](C(=O)N[C@@H](Cc1ccc(O)cc1)C(=O)NCC(=O)N[C@@H](CCC(=O)O)C(=O)N[C@@H](CC(C)C)C(=O)N[C@@H](CCC(N)=O)C(=O)N[C@@H](CCCNC(=N)N)C(=O)N[C@@H](CC(C)C)C(=O)N[C@@H](CCC(N)=O)C(=O)O)[C@@H](C)O [[D-Phe^1, Phe^3, Leu^13]pMOT(1-14), H-D-Phe-Val-Phe-Ile-Phe-Thr-Tyr-Gly-Glu-Leu-Gln-Arg-Leu-Gln-OH] (H-[dF]VFIFTYGELQRLQ-OH)",–
< 4.5,0.0295,"CC[C@H](C)[C@H](NC(=O)[C@H](Cc1ccccc1)NC(=O)[C@@H](NC(=O)[C@@H](N)CC1CCCCC1)C(C)C)C(=O)N[C@@H](Cc1ccccc1)C(=O)N[C@H](C(=O)N[C@@H](Cc1ccc(O)cc1)C(=O)NCC(=O)N[C@@H](CCC(=O)O)C(=O)N[C@@H](CC(C)C)C(=O)N[C@@H](CCC(N)=O)C(=O)N[C@@H](CCCNC(=N)N)C(=O)N[C@@H](CC(C)C)C(=O)N[C@@H](CCC(N)=O)C(=O)O)[C@@H](C)O [[Cha^1, Phe^3, Leu^13]pMOT(1-14), H-Cha-Val-Phe-Ile-Phe-Thr-Tyr-Gly-Glu-Leu-Gln-Arg-Leu-Gln-OH] (H-[Cha]VFIFTYGELQRLQ-OH)",–
< 4.5,0.178,"H-FVLIFTYGELQRLQ-OH [[Leu^3, Leu^13]pMOT(1-14), H-Phe-Val-Leu-Ile-Phe-Thr-Tyr-Gly-Glu-Leu-Gln-Arg-Leu-Gln-OH]",–
< 4.5,0.00398,"H-FVFLFTYGELQRLQ-OH [[Phe^3, Leu^4, Leu^13]pMOT(1-14), H-Phe-Val-Phe-Leu-Phe-Thr-Tyr-Gly-Glu-Leu-Gln-Arg-Leu-Gln-OH]",–
< 4.5,0.0107,"CC[C@H](C)[C@H](NC(=O)[C@H](Cc1ccccc1)NC(=O)[C@@H](NC(=O)[C@H](Cc1ccccc1)NC)C(C)C)C(=O)N[C@@H](Cc1ccccc1)C(=O)N[C@H](C(=O)N[C@@H](Cc1ccc(O)cc1)C(=O)NCC(=O)N[C@@H](CCC(=O)O)C(=O)N[C@@H](CC(C)C)C(=O)N[C@@H](CCC(N)=O)C(=O)N[C@@H](CCCNC(=N)N)C(=O)N[C@@H](CC(C)C)C(=O)N[C@@H](CCC(N)=O)C(=O)O)[C@@H](C)O [[N--MePhe^1, Phe^3, Leu^3]pMOT(1-14), [1-N-Methylphenylalanine, 3-phenylalanine, 13-leucine] motilin-(1-14)-peptide (Porcine), Bis-trifluoroacetate Salt] (H-[NMeF]VFIFTYGELQRLQ-OH)",–
< 4.5,0.0251,"CC[C@H](C)[C@H](NC(=O)[C@H](Cc1ccccc1)NC(=O)[C@@H](NC(=O)[C@@H](N)Cc1ccccc1)C(C)C)C(=O)N[C@@H](CC1CCCCC1)C(=O)N[C@H](C(=O)N[C@@H](Cc1ccc(O)cc1)C(=O)NCC(=O)N[C@@H](CCC(=O)O)C(=O)N[C@@H](CC(C)C)C(=O)N[C@@H](CCC(N)=O)C(=O)N[C@@H](CCCNC(=N)N)C(=O)N[C@@H](CC(C)C)C(=O)N[C@@H](CCC(N)=O)C(=O)O)[C@@H](C)O [[Phe^3, Cha^5, Leu^13]pMOT(1-14), H-Phe-Val-Phe-Ile-Cha-Thr-Tyr-Gly-Glu-Leu-Gln-Arg-Leu-Gln-OH] (H-FVFI[Cha]TYGELQRLQ-OH)",–
< 4.5,0.0158,"H-FVFIFTYGELARLQ-OH [[Phe^3, Ala^11, Leu^13]pMOT(1-14), H-Phe-Val-Phe-Ile-Phe-Thr-Tyr-Gly-Glu-Leu-Ala-Arg-Leu-Gln-OH]",–
< 4.5,0.0437,"CC[C@H](C)[C@H](NC(=O)[C@H](Cc1ccc(I)cc1)NC(=O)[C@@H](NC(=O)[C@@H](N)Cc1ccccc1)C(C)C)C(=O)N[C@@H](Cc1ccccc1)C(=O)N[C@H](C(=O)N[C@@H](Cc1ccc(O)cc1)C(=O)NCC(=O)N[C@@H](CCC(=O)O)C(=O)N[C@@H](CC(C)C)C(=O)N[C@@H](CCC(N)=O)C(=O)N[C@@H](CCCNC(=N)N)C(=O)N[C@@H](CC(C)C)C(=O)N[C@@H](CCC(N)=O)C(=O)O)[C@@H](C)O [[p-I-Phe^3, Leu^13]pMOT(1-14), H-Phe-Val-p-L-Phe-Ile-Phe-Thr-Tyr-Gly-Glu-Leu-Gln-Arg-Leu-Gln-OH] (H-FV[Phe(4-I)]IFTYGELQRLQ-OH)",–
< 4.5,0.0257,"CC[C@H](C)[C@H](NC(=O)[C@H](Cc1cccs1)NC(=O)[C@@H](NC(=O)[C@@H](N)Cc1ccccc1)C(C)C)C(=O)N[C@@H](Cc1ccccc1)C(=O)N[C@H](C(=O)N[C@@H](Cc1ccc(O)cc1)C(=O)NCC(=O)N[C@@H](CCC(=O)O)C(=O)N[C@@H](CC(C)C)C(=O)N[C@@H](CCC(N)=O)C(=O)N[C@@H](CCCNC(=N)N)C(=O)N[C@@H](CC(C)C)C(=O)N[C@@H](CCC(N)=O)C(=O)O)[C@@H](C)O [[Thi^3, Leu^13]pMOT(1-14), H-Phe-Val-Thi-Ile-Phe-Thr-Tyr-Gly-Glu-Leu-Gln-Arg-Leu-Gln-OH] (H-FV[2Thi]IFTYGELQRLQ-OH)",–
< 4.5,0.0309,"H-FVFIFTFGELQRLQ-OH [[Phe^3, Phe^7, Leu^13]pMOT(1-14), H-Phe-Val-Phe-Ile-Phe-Thr-Phe-Gly-Glu-Leu-Gln-Arg-Leu-Gln-OH]",–
< 4.5,0.0275,"CC[C@H](C)[C@H](NC(=O)[C@H](Cc1ccc2ccccc2c1)NC(=O)[C@@H](NC(=O)[C@@H](N)Cc1ccccc1)C(C)C)C(=O)N[C@@H](Cc1ccccc1)C(=O)N[C@H](C(=O)N[C@@H](Cc1ccc(O)cc1)C(=O)NCC(=O)N[C@@H](CCC(=O)O)C(=O)N[C@@H](CC(C)C)C(=O)N[C@@H](CCC(N)=O)C(=O)N[C@@H](CCCNC(=N)N)C(=O)N[C@@H](CC(C)C)C(=O)N[C@@H](CCC(N)=O)C(=O)O)[C@@H](C)O [[2-Nal^3, Leu^13]pMOT(1-14), H-Phe-Val-2-Nal-Ile-Phe-Thr-Tyr-Gly-Glu-Leu-Gln-Arg-Leu-Gln-OH] (H-FV[2Nal]IFTYGELQRLQ-OH)",–
< 4.5,0.0209,"CC[C@H](C)[C@H](NC(=O)[C@H](CC1CCCCC1)NC(=O)[C@@H](NC(=O)[C@@H](N)Cc1ccccc1)C(C)C)C(=O)N[C@@H](Cc1ccccc1)C(=O)N[C@H](C(=O)N[C@@H](Cc1ccc(O)cc1)C(=O)NCC(=O)N[C@@H](CCC(=O)O)C(=O)N[C@@H](CC(C)C)C(=O)N[C@@H](CCC(N)=O)C(=O)N[C@@H](CCCNC(=N)N)C(=O)N[C@@H](CC(C)C)C(=O)N[C@@H](CCC(N)=O)C(=O)O)[C@@H](C)O [[Cha^3, Leu^13]pMOT(1-14), H-Phe-Val-Cha-Ile-Phe-Thr-Tyr-Gly-Glu-Leu-Gln-Arg-Leu-Gln-OH] (H-FV[Cha]IFTYGELQRLQ-OH)",–
< 4.5,0.0275,"FVFIFTYGELQR-NH2 [[Phe^3 pMOT(1-12) amide, [3-Phenylalanine]motilin-(1-12)-peptide Amide (Porcine), Bis-trifluoroacetate Salt]",–

Compound,pEC50 [1],"IC50 [2, 3] [µM]",IC50 [2] [µM]
"FVFIFTYGELQRLQEKERNKGQ [[Phe^3,Leu^13]pMOT, [3-Phenylalanine, 13-leucine]motilin (Porcine), Pentakis-trifluoroacetate Salt]",< 4.5,–,0.000776
"FVIIFTYGELQRLQEKERNKGQ [[Ile^3, Leu^13]pMOT]",< 4.5,–,0.0151
